# Like-named read-outs stand apart in the source and are kept apart here.
# Tests used:
# [1] = Solubility of ticagrelor in SBECD (appearance on shaking platform); type: physicochemical; details: SBECD 40% w/w
# Description: In a first example two different types of cyclodextrin were used and compared for the solubilization of ticagrelor. An unbuffered stock solution of HPβCD or SBECD was made in water at the target concentrations of 20 w/w %, 25 w/w %, 30 w/w %, 35 w/w % and 40 w/w %. Ticagrelor was added slowly under vortex. Ticagrelor was used at concentrations of 5, 10 or 14 mg/ml in milli Q water. The ticagrelor-cyclodextrin solutions were left on a shaking platform. No sonification or heat was applied.
# [2] = Bulk hold study, ticagrelor 8 mg/ml in 30% w/w HPβCD, phosphate buffer pH 7.5; type: physicochemical
# Description: To investigate the impact of temperature and hold time, a new composition was prepared as per below Table 19.
# In first step a phosphate buffer at pH 7.5 was prepared and the buffered solution was heated to 40° C.-45° C. HPβCD was added to the buffered solution under continuous mixing. […] It usually took 30 mins to 4 hours depending on batch size.
# Then this solution was filtered through a 0.22-micron filter and packed in suitable clear or amber colored glass vials
# [3] = phosphate buffered solution pH 7.4, normal laboratory light and temperature; cited from earlier work
# [4] = for Appearance, undiluted: 5 mg/ml; for Appearance in 5% dextrose / Appearance in NaCl 0.9%: diluted to 0.1 mg/ml
smiles,measurement,setting,value
"CCCSc1nc(N[C@@H]2C[C@H]2c2ccc(F)c(F)c2)c2nnn([C@@H]3C[C@H](OCCO)[C@@H](O)[C@H]3O)c2n1 [Ticagrelor, (1S,2S,3R,5S)-3-{7-[(1R,2S)-2-(3,4-difluorophenyl)cyclopropylamino]5-(propylthio)-3H-(1,2,3)triazolo (4,5-D)pyrimidin-3-yl}-5-(2 hydroxyethoxy)cyclopentane-1,2-diol]",Appearance After overnight shaking,[1]; ticagrelor 10 mg/ml,− (translucent solution with precipitation)
same,Appearance After 5 min of shaking,[1]; ticagrelor 14 mg/ml,− (translucent solution with precipitation)
same,Appearance After 30 min of shaking,[1]; ticagrelor 14 mg/ml,− (translucent solution with precipitation)
same,Appearance After 60 min of shaking,[1]; ticagrelor 14 mg/ml,− (translucent solution with precipitation)
same,Appearance After 3 h of shaking,[1]; ticagrelor 14 mg/ml,− (translucent solution with precipitation)
same,Appearance After overnight shaking,[1]; ticagrelor 14 mg/ml,− (translucent solution with precipitation)
same,Acetal impurity,"[2]; Bulk hold 45° C., T = 1 h",0.04%
same,Amine impurity,"[2]; Bulk hold 45° C., T = 1 h",0.05%
same,Assay Ticagrelor,"[2]; Bulk hold 45° C., T = 1 h",107.87%
same,Sum Impurities >0.05,"[2]; Bulk hold 45° C., T = 1 h",0.12%
same,Total Impurities,"[2]; Bulk hold 45° C., T = 1 h",0.20%
same,Triol impurity,"[2]; Bulk hold 45° C., T = 1 h",0.04%
same,"Unnamed impurity, relative retention time 1.33","[2]; Bulk hold 45° C., T = 1 h",0.07%
same,Acetal impurity,"[2]; Bulk hold 45° C., T = 110 h",0.04%
same,Amine impurity,"[2]; Bulk hold 45° C., T = 110 h",0.07%
same,Assay Ticagrelor,"[2]; Bulk hold 45° C., T = 110 h",109.10%
same,Sum Impurities >0.05,"[2]; Bulk hold 45° C., T = 110 h",0.11%
same,Total Impurities,"[2]; Bulk hold 45° C., T = 110 h",0.28%
same,Triol impurity,"[2]; Bulk hold 45° C., T = 110 h",0.05%
same,"Unnamed impurity, relative retention time 1.33","[2]; Bulk hold 45° C., T = 110 h",0.03%
same,Acetal impurity,"[2]; Bulk hold at 30° C., T0",0.04%
same,Amine impurity,"[2]; Bulk hold at 30° C., T0",0.06%
same,Assay Ticagrelor,"[2]; Bulk hold at 30° C., T0",105.60%
same,Regiomer impurity,"[2]; Bulk hold at 30° C., T0",0.00%
same,Sum Impurities >0.05,"[2]; Bulk hold at 30° C., T0",0.10%
same,Total Impurities,"[2]; Bulk hold at 30° C., T0",0.21%
same,Triol impurity,"[2]; Bulk hold at 30° C., T0",0.05%
same,Acetal impurity,"[2]; Bulk hold at 30° C., T4 W",0.04%
same,Amine impurity,"[2]; Bulk hold at 30° C., T4 W",0.06%
same,Assay Ticagrelor,"[2]; Bulk hold at 30° C., T4 W",106.14%
same,Regiomer impurity,"[2]; Bulk hold at 30° C., T4 W",0.00%
same,Sum Impurities >0.05,"[2]; Bulk hold at 30° C., T4 W",0.06%
same,Total Impurities,"[2]; Bulk hold at 30° C., T4 W",0.21%
same,Triol impurity,"[2]; Bulk hold at 30° C., T4 W",0.04%
same,Acetal impurity,"[2]; sealed vials, T = 1 M, 25° C.",0.03%
same,Amine impurity,"[2]; sealed vials, T = 1 M, 25° C.",0.06%
same,Assay Ticagrelor,"[2]; sealed vials, T = 1 M, 25° C.",107.22%
same,Regiomer impurity,"[2]; sealed vials, T = 1 M, 25° C.",0.03%
same,Sum Impurities >0.05,"[2]; sealed vials, T = 1 M, 25° C.",0.06%
same,Total Impurities,"[2]; sealed vials, T = 1 M, 25° C.",0.23%
same,Triol impurity,"[2]; sealed vials, T = 1 M, 25° C.",0.01%
same,"Unnamed impurity, relative retention time 1.03","[2]; sealed vials, T = 1 M, 25° C.",0.02%
same,"Unnamed impurity, relative retention time 1.33","[2]; sealed vials, T = 1 M, 25° C.",0.03%
same,Acetal impurity,"[2]; sealed vials, T = 1 M, 40° C.",0.00%
same,Amine impurity,"[2]; sealed vials, T = 1 M, 40° C.",0.06%
same,Assay Ticagrelor,"[2]; sealed vials, T = 1 M, 40° C.",105.16%
same,Regiomer impurity,"[2]; sealed vials, T = 1 M, 40° C.",0.08%
same,Sum Impurities >0.05,"[2]; sealed vials, T = 1 M, 40° C.",0.21%
same,Total Impurities,"[2]; sealed vials, T = 1 M, 40° C.",0.28%
same,Triol impurity,"[2]; sealed vials, T = 1 M, 40° C.",0.00%
same,"Unnamed impurity, relative retention time 1.03","[2]; sealed vials, T = 1 M, 40° C.",0.02%
same,"Unnamed impurity, relative retention time 1.33","[2]; sealed vials, T = 1 M, 40° C.",0.08%
same,Ticagrelor concentration on storage,[3],declined after 1 month
same,"Appearance, undiluted",[4]; HPβCD 22.5% w/w,Turbid; clear after heating to 40 °C
same,"Appearance, undiluted",[4]; HPβCD 25.0% w/w,Turbid; clear after heating to 40 °C
same,"Appearance, undiluted",[4]; HPβCD 27.5% w/w,Turbid; clear after heating to 40 °C
same,"Appearance, undiluted",[4]; HPβCD 30.0% w/w,Clear solution
same,"Appearance, undiluted",[4]; HPβCD 32.5% w/w,Clear solution
same,Ticagrelor concentration possible to dissolve,"[4]; HPβCD 20-40% w/w, without the use of heat",5 to 15 mg/mL
same,Appearance in 5% dextrose,[4]; HPβCD 22.5% w/w,Clear solution
same,Appearance in NaCl 0.9%,[4]; HPβCD 22.5% w/w,Turbid
same,Appearance in 5% dextrose,[4]; HPβCD 25.0% w/w,Clear solution
same,Appearance in NaCl 0.9%,[4]; HPβCD 25.0% w/w,Turbid
same,Appearance in 5% dextrose,[4]; HPβCD 27.5% w/w,Clear solution
same,Appearance in NaCl 0.9%,[4]; HPβCD 27.5% w/w,Turbid
same,Appearance in 5% dextrose,[4]; HPβCD 30.0% w/w,Clear solution
same,Appearance in NaCl 0.9%,[4]; HPβCD 30.0% w/w,Turbid
same,Appearance in 5% dextrose,[4]; HPβCD 32.5% w/w,Clear solution
same,Appearance in NaCl 0.9%,[4]; HPβCD 32.5% w/w,Clear solution
same,Stability of undiluted concentrate in the refrigerator,[4]; HPβCD concentration as low as 22.5% w/w,remained stable
same,"HPβCD required for a clear, storage stable ticagrelor solution",[4]; concentration relevant for injection or intravenous administration,At least 15 % w/w

# Source: patent US20250235455A1, “AQUEOUS TICAGRELOR SOLUTIONS, METHOD OF MANUFACTURING AND USES” (HYLORIS DEVELOPMENTS SA, priority 2022, published 2025)
